# Measured values as given in ChEMBL document CHEMBL3885861, “Open TG-GATES”.
# Species on record: Rattus norvegicus
# Experiment: Open TG-GATES - Regimen: Daily Repeat
# Format: toxicity, organism-based, Sprague-Dawley
# Parameters: regimen Daily Repeat, gender Male, age 6 weeks
# Conditions: in vivo, po, 300 mg/kg, route gavage, dose level Middle; for APTT / Bas / Eos / Fbg / Hb / Ht / Lym / MCH / MCHC / MCV / Mono / Neu / PT / Plat / RBC / Ret / WBC: tissue Blood; for KIDNEY_L / KIDNEY_R / KIDNEY_TOTAL: tissue Kidney; for LIVER: tissue Liver; for A/G / ALP / ALT / AST / BUN / CRE / Ca / Cl / DBIL / GLC / IP / K / LDH / Na / PL / RALB / TBIL / TC / TG / TP / gamma-GTP: tissue Plasma
smiles,measurement,setting,value
CN/C(=N/CCSCc1nc[nH]c1C)NC#N [CIMETIDINE],TERMINAL_BW,"72 h, time 3 day",228.5 g
same,APTT,"72 h, time 3 day",18.9 s
same,Bas,"72 h, time 3 day",0%
same,Eos,"72 h, time 3 day",1%
same,Fbg,"72 h, time 3 day",228.2 mg/dL
same,Hb,"72 h, time 3 day",13.1 g/dL
same,Ht,"72 h, time 3 day",39.2%
same,Lym,"72 h, time 3 day",80%
same,MCH,"72 h, time 3 day",21.3 pg
same,MCHC,"72 h, time 3 day",33.6%
same,MCV,"72 h, time 3 day",63.5 fL
same,Mono,"72 h, time 3 day",2.6%
same,Neu,"72 h, time 3 day",14.8%
same,PT,"72 h, time 3 day",12.4 s
same,Plat,"72 h, time 3 day",125.9 x10_4/uL
same,RBC,"72 h, time 3 day",616.6 x10_4/ul
same,Ret,"72 h, time 3 day",6%
same,WBC,"72 h, time 3 day",104.1 x10_2/uL
same,KIDNEY_L,"72 h, time 3 day",1 g
same,KIDNEY_R,"72 h, time 3 day",1 g
same,KIDNEY_TOTAL,"72 h, time 3 day",2 g
same,LIVER,"72 h, time 3 day",11.4 g
same,A/G,"72 h, time 3 day",1.6
same,ALP,"72 h, time 3 day",1094.2 IU/L
same,ALT,"72 h, time 3 day",37.6 IU/L
same,AST,"72 h, time 3 day",67.2 IU/L
same,BUN,"72 h, time 3 day",15.8 mg/dL
same,CRE,"72 h, time 3 day",0.4 mg/dL
same,Ca,"72 h, time 3 day",11.1 mg/dL
same,Cl,"72 h, time 3 day",102.4 meq/L
same,DBIL,"72 h, time 3 day",0.1 mg/dL
same,GLC,"72 h, time 3 day",195 mg/dL
same,IP,"72 h, time 3 day",7.2 mg/dL
same,K,"72 h, time 3 day",4.1 meq/L
same,LDH,"72 h, time 3 day",140.8 IU/L
same,Na,"72 h, time 3 day",140.8 meq/L
same,PL,"72 h, time 3 day",156.2 mg/dL
same,RALB,"72 h, time 3 day",3.5 g/dL
same,TBIL,"72 h, time 3 day",0.2 mg/dL
same,TC,"72 h, time 3 day",79.2 mg/dL
same,TG,"72 h, time 3 day",119.8 mg/dL
same,TP,"72 h, time 3 day",5.7 g/dL
same,gamma-GTP,"72 h, time 3 day",0.6 IU/L
same,TERMINAL_BW,"[…], time 7 day",259.4 g
same,TERMINAL_BW,"[…], time 14 day",317.5 g
same,TERMINAL_BW,"[…], time 28 day",390.1 g
same,APTT,"[…], time 7 day",19.2 s
same,Bas,"[…], time 7 day",0%
same,Eos,"[…], time 7 day",1%
same,Fbg,"[…], time 7 day",222.6 mg/dL
same,Hb,"[…], time 7 day",13.6 g/dL
same,Ht,"[…], time 7 day",40.9%
same,Lym,"[…], time 7 day",78.2%
same,MCH,"[…], time 7 day",21 pg
same,MCHC,"[…], time 7 day",33.1%
same,MCV,"[…], time 7 day",63.2 fL
same,Mono,"[…], time 7 day",2.6%
same,Neu,"[…], time 7 day",16.6%
same,PT,"[…], time 7 day",12.6 s
same,Plat,"[…], time 7 day",127.8 x10_4/uL
same,RBC,"[…], time 7 day",646.8 x10_4/ul
same,Ret,"[…], time 7 day",5.3%
same,WBC,"[…], time 7 day",107.7 x10_2/uL
same,APTT,"[…], time 14 day",18.9 s
same,Bas,"[…], time 14 day",0%
same,Eos,"[…], time 14 day",1%
same,Fbg,"[…], time 14 day",222.4 mg/dL
same,Hb,"[…], time 14 day",14.2 g/dL
same,Ht,"[…], time 14 day",42.9%
same,Lym,"[…], time 14 day",80%
same,MCH,"[…], time 14 day",20 pg
same,MCHC,"[…], time 14 day",32.9%
same,MCV,"[…], time 14 day",60.6 fL
same,Mono,"[…], time 14 day",2.8%
same,Neu,"[…], time 14 day",15.8%
same,PT,"[…], time 14 day",12.7 s
same,Plat,"[…], time 14 day",125.7 x10_4/uL
same,RBC,"[…], time 14 day",709.6 x10_4/ul
same,Ret,"[…], time 14 day",4.3%
same,WBC,"[…], time 14 day",117.5 x10_2/uL
same,APTT,"[…], time 28 day",18.7 s
same,Bas,"[…], time 28 day",0%
same,Eos,"[…], time 28 day",1%
same,Fbg,"[…], time 28 day",225.2 mg/dL
same,Hb,"[…], time 28 day",14.6 g/dL
same,Ht,"[…], time 28 day",42.1%
same,Lym,"[…], time 28 day",82.6%
same,MCH,"[…], time 28 day",19.5 pg
same,MCHC,"[…], time 28 day",34.6%
same,MCV,"[…], time 28 day",56.3 fL
same,Mono,"[…], time 28 day",2.2%
same,Neu,"[…], time 28 day",13.2%
same,PT,"[…], time 28 day",13 s
same,Plat,"[…], time 28 day",108.2 x10_4/uL
same,RBC,"[…], time 28 day",747.2 x10_4/ul
same,Ret,"[…], time 28 day",2.5%
same,WBC,"[…], time 28 day",140.1 x10_2/uL
same,KIDNEY_L,"[…], time 7 day",1.1 g
same,KIDNEY_R,"[…], time 7 day",1.1 g
same,KIDNEY_TOTAL,"[…], time 7 day",2.2 g
same,KIDNEY_L,"[…], time 14 day",1.2 g
same,KIDNEY_R,"[…], time 14 day",1.2 g
same,KIDNEY_TOTAL,"[…], time 14 day",2.4 g
same,KIDNEY_L,"[…], time 28 day",1.4 g
same,KIDNEY_R,"[…], time 28 day",1.4 g
same,KIDNEY_TOTAL,"[…], time 28 day",2.8 g
same,LIVER,"[…], time 7 day",12.3 g
same,LIVER,"[…], time 14 day",14.6 g
same,LIVER,"[…], time 28 day",16.3 g
same,A/G,"[…], time 7 day",1.5
same,ALP,"[…], time 7 day",951.8 IU/L
same,ALT,"[…], time 7 day",32.2 IU/L
same,AST,"[…], time 7 day",64.6 IU/L
same,BUN,"[…], time 7 day",17.6 mg/dL
same,CRE,"[…], time 7 day",0.4 mg/dL
same,Ca,"[…], time 7 day",10.8 mg/dL
same,Cl,"[…], time 7 day",102.4 meq/L
same,DBIL,"[…], time 7 day",0.094 mg/dL
same,GLC,"[…], time 7 day",234.6 mg/dL
same,IP,"[…], time 7 day",7.6 mg/dL
same,K,"[…], time 7 day",3.8 meq/L
same,LDH,"[…], time 7 day",168 IU/L
same,Na,"[…], time 7 day",141.4 meq/L
same,PL,"[…], time 7 day",156.2 mg/dL
same,RALB,"[…], time 7 day",3.4 g/dL
same,TBIL,"[…], time 7 day",0.1 mg/dL
same,TC,"[…], time 7 day",73.4 mg/dL
same,TG,"[…], time 7 day",120 mg/dL
same,TP,"[…], time 7 day",5.6 g/dL
same,gamma-GTP,"[…], time 7 day",1.4 IU/L
same,A/G,"[…], time 14 day",1.4
same,ALP,"[…], time 14 day",1080.4 IU/L
same,ALT,"[…], time 14 day",37.8 IU/L
same,AST,"[…], time 14 day",65.8 IU/L
same,BUN,"[…], time 14 day",19.2 mg/dL
same,CRE,"[…], time 14 day",0.4 mg/dL
same,Ca,"[…], time 14 day",10.5 mg/dL
same,Cl,"[…], time 14 day",102 meq/L
same,DBIL,"[…], time 14 day",0.1 mg/dL
same,GLC,"[…], time 14 day",216.2 mg/dL
same,IP,"[…], time 14 day",7.2 mg/dL
same,K,"[…], time 14 day",3.9 meq/L
same,LDH,"[…], time 14 day",176.4 IU/L
same,Na,"[…], time 14 day",140.6 meq/L
same,PL,"[…], time 14 day",164.2 mg/dL
same,RALB,"[…], time 14 day",3.3 g/dL
same,TBIL,"[…], time 14 day",0.2 mg/dL
same,TC,"[…], time 14 day",77.6 mg/dL
same,TG,"[…], time 14 day",129 mg/dL
same,TP,"[…], time 14 day",5.8 g/dL
same,gamma-GTP,"[…], time 14 day",1 IU/L
same,A/G,"[…], time 28 day",1.3
same,ALP,"[…], time 28 day",725.6 IU/L
same,ALT,"[…], time 28 day",39.4 IU/L
same,AST,"[…], time 28 day",67 IU/L
same,BUN,"[…], time 28 day",18.6 mg/dL
same,CRE,"[…], time 28 day",0.5 mg/dL
same,Ca,"[…], time 28 day",10.1 mg/dL
same,Cl,"[…], time 28 day",101.8 meq/L
same,DBIL,"[…], time 28 day",0.1 mg/dL
same,GLC,"[…], time 28 day",253 mg/dL
same,IP,"[…], time 28 day",6.7 mg/dL
same,K,"[…], time 28 day",3.4 meq/L
same,LDH,"[…], time 28 day",183.8 IU/L
same,Na,"[…], time 28 day",140.2 meq/L
same,PL,"[…], time 28 day",148 mg/dL
same,RALB,"[…], time 28 day",3.3 g/dL
same,TBIL,"[…], time 28 day",0.2 mg/dL
same,TC,"[…], time 28 day",70.6 mg/dL
same,TG,"[…], time 28 day",128 mg/dL
same,TP,"[…], time 28 day",5.8 g/dL
same,gamma-GTP,"[…], time 28 day",1.2 IU/L
